Common to all, as to type: cell-based
Assay [1] relates to tetracycline sensitive and resistant Gram-positive and Gram-negative bacteria. Briefly: In vitro antibacterial evaluation, statements on the whole panel. On the procedure: (§1) The minimum inhibitory concentration (MIC), the lowest concentration of the antibiotic which inhibits growth of the test organism, is determined by the microtiter broth dilution method using 0.1 ml Muller-Hinton II broth (Baltimore Biological Laboratories) per well. A suitable oxygen scavenger (i.e., cysteine or dithiothreitol) is added to the assay medium for the testing of compounds according to Formula I because of the sensitivity of those compounds to oxidation. An inoculum level of 1-5×10^5 CFU/ml and a range of antibiotic concentrations (32 0.004 μg/ml) are used.

In assay [2] the test system is S. aureus IVES 2943 (methicillin-resistant). Briefly: MIC, microtiter broth dilution. The conditions noted are these: Staphylococcus aureus, 18 h. On the procedure: as §1
A general note: Broth dilution looks for growth in wells or tubes with falling amounts of substance.

The test system of a further assay is E. coli ATCC 25922. Briefly: MIC, microtiter broth dilution. Particulars: Escherichia coli, ATCC25922, 18 h. On the procedure:
as §1

For assay [3], the system named is E. coli UBMS 89-2 (tetracycline-sensitive). Briefly: MIC, microtiter broth dilution. The conditions noted are these: Escherichia coli, 18 h. On the procedure: as §1
The test system of another assay is E. coli UBMS 90-4 (tetM). Briefly: MIC, microtiter broth dilution. Particulars: Escherichia coli, 18 h. On the procedure:
as §1

Assay [4] relates to S. aureus UBMS 88-4 (tetracycline-sensitive). Briefly: MIC, microtiter broth dilution. Particulars: Staphylococcus aureus, 18 h, no cysteine stated. On the procedure:
as §1

The test system of assay [5] is S. aureus IVES 1983 (methicillin-resistant). Briefly: MIC, microtiter broth dilution. The conditions noted are these: Staphylococcus aureus, 18 h. On the procedure: as §1
Assay [6] relates to E. coli UBMS 88-2 (tetracycline-sensitive). Briefly: MIC, microtiter broth dilution. The conditions noted are these: Escherichia coli, 18 h, no cysteine stated. The method, then:
as §1

The next assay deals with S. marcescens FPOR 87-33. Briefly: MIC, microtiter broth dilution. Particulars: Serratia marcescens, FPOR8733, 18 h. The method, then: as §1
Assay [7] relates to S. aureus UBMS 90-3 (tetracycline-sensitive). Briefly: MIC, microtiter broth dilution. The conditions noted are these: Staphylococcus aureus, 18 h. The method, then: as §1
The test system of the next assay is M. morganii NEMC 87-119. Briefly: MIC, microtiter broth dilution. The conditions noted are these: Morganella morganii, NEMC87119, 18 h. On the procedure: as §1
The test system of assay [8] is E. coli UBMS 90-5 (tetracycline-sensitive). Briefly: MIC, microtiter broth dilution. The conditions noted are these: Escherichia coli, 18 h. The method, then: as §1
For assay [9], the system named is X. maltophilia FPOR 87-210. Briefly: MIC, microtiter broth dilution. Particulars: Stenotrophomonas maltophilia, FPOR87210, 18 h, no cysteine stated. The method, then: as §1
The next assay relates to E. faecalis ATCC 29212. Briefly: MIC, microtiter broth dilution. Particulars: Enterococcus faecalis, ATCC29212, 18 h. The method, then: as §1
The subject of the next assay is P. aeruginosa ATCC 27853. Briefly: MIC, microtiter broth dilution. Particulars: Pseudomonas aeruginosa, ATCC27853, 18 h. The method, then:
as §1

In the next assay the test system is S. aureus ATCC 29213. Briefly: MIC, microtiter broth dilution. The conditions noted are these: Staphylococcus aureus, ATCC29213, 18 h, no cysteine stated. On the procedure: as §1
Assay [10] has as its system S. aureus UBMS 88-7 (tetK). Briefly: microbe, parasite or virus in culture. Particulars: Staphylococcus aureus, 18 h. The method, then: as §1
The test system of assay [11] is S. aureus UBMS 88-5 (tetM). Briefly: microbe, parasite or virus in culture. The conditions noted are these: Staphylococcus aureus, 18 h. On the procedure: as §1
Another assay concerns E. coli UBMS 88-1 (tetB). Briefly: microbe, parasite or virus in culture. The conditions noted are these: Escherichia coli, 18 h. The method, then: as §1
Assay [12] deals with S. haemolyticus AVAH 88-3. Briefly: MIC, microtiter broth dilution. The conditions noted are these: Staphylococcus haemolyticus, AVAH883, 18 h; S. haemolyticus AVAH 88-3; in the presence of cysteine (0.05%); read-out: MIC. The method, then:
as §1

Where [13] appears, read: in the presence of cysteine (0.05%).

Counter-ions that a name gives are not always drawn.

`CCN(CC)c1ccc(O)c2c1C[C@H]1C[C@H]3[C@H](N(C)C)C(O)=C(C(N)=O)C(=O)[C@@]3(O)C(O)=C1C2=O` [D, 7-(Diethylamino)-6-demethyl-6-deoxytetracycline sulfate]: the “Antibacterial potency in the presence of cysteine” value in [1] (in the presence of cysteine versus without) is listed as “not enhanced”. The MIC in assay [2] (no cysteine stated) is 8 µg/mL; in the assay with E. coli ATCC 25922 (no cysteine stated) it was 1 µg/mL; in assay [3] (no cysteine stated), 4 µg/mL; with E. coli UBMS 90-4 (tetM), more than 32 µg/mL; in [4], 0.03 µg/mL; in assay [5] (no cysteine stated), 8 µg/mL. Besides, the MIC was 2 µg/mL in [6]; 32 µg/mL with S. marcescens FPOR 87-33 (no cysteine stated); 0.03 µg/mL in assay [7] (no cysteine stated); 32 µg/mL in the assay with M. morganii NEMC 87-119 (no cysteine stated); 2 µg/mL in assay [8] (no cysteine stated); 0.25 µg/mL in [9]. The MIC is 8 µg/mL against E. faecalis ATCC 29212 (no cysteine stated); 32 µg/mL in the assay on P. aeruginosa ATCC 27853 (no cysteine stated); less than 0.015 µg/mL in the assay on S. aureus ATCC 29213; 0.12 µg/mL in assay [10]; 16 µg/mL in [11]; 32 µg/mL against E. coli UBMS 88-1 (tetB).
Turning to `CCN(CC)c1cc(N)c(O)c2c1C[C@H]1C[C@H]3[C@H](N(C)C)C(O)=C(C(N)=O)C(=O)[C@@]3(O)C(O)=C1C2=O` [C, 9-Amino-7-(diethylamino)-6-demethyl-6-deoxytetracycline sulfate], in assay [1] (comparator D), the “antibacterial activity versus D” value is listed as “enhancement of antibacterial activity”. The MIC in assay [2] (setting [13]) was determined as 0.25 µg/mL; in the assay on E. coli ATCC 25922 (setting [13]), 0.5 µg/mL; in assay [3] (setting [13]), 0.5 µg/mL; in [5] (setting [13]), 0.25 µg/mL; with S. marcescens FPOR 87-33 (setting [13]), 4 µg/mL; in [7] (setting [13]), 0.03 µg/mL. The MIC in the assay on M. morganii NEMC 87-119 (setting [13]) stood at 2 µg/mL; in [8] (setting [13]), 1 µg/mL; in the assay with E. faecalis ATCC 29212 (setting [13]), 0.12 µg/mL; in the assay with P. aeruginosa ATCC 27853 (setting [13]) it was 8 µg/mL; in assay [12], 0.12 µg/mL.

Source of the values: US5281628A, “9-amino-7-(substituted)-6-demethyl-6-deoxytetracyclines” (American Cyanamid Company, priority 1991, dated 1994).
